Laboratory results reported in patent publication US20050026984A1, “Substituted thieno [2,3-c] pyrazoles and their use as medicinal products” (Aventis Pharma S.A., priority 2003, published 2005).

melting point: 142 °C
SMILES: O=C(O)c1cc2c(-c3ccccc3)n[nH]c2s1 [Example 1, 3-phenyl-1H-thieno[2,3-c]pyrazole-5-carboxylic acid]
